Test results as given in PubChem BioAssay (NCI).
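Step 1: Grow cells in 96-well plates. Step 2: Expose to compound for 48 hours at 5 concentrations. Step 3: Interpolate endpoints linearly; if unreached, use highest concentration. The concentration for full growth arrest is given as TGI.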

Legend:
Assay in all cases: NCI anticancer screen, dose series, 48 h
SNB-75 CNS = tested on: SNB-75 CNS
KM20L2 colon = tested on: KM20L2 colon
NCI-H522 lung = tested on: NCI-H522 lung
RPMI-8226 leukemia = tested on: RPMI-8226 leukemia
SK-OV-3 ovarian = tested on: SK-OV-3 ovarian
HOP-62 NSCLC = tested on: HOP-62 NSCLC
SK-MEL-2 melanoma = tested on: SK-MEL-2 melanoma
NCI-H460 lung = tested on: NCI-H460 lung
DMS 114 small cell lung = tested on: DMS 114 small cell lung
SF-539 CNS = tested on: SF-539 CNS
HCC-2998 colon = tested on: HCC-2998 colon
M14 melanoma = tested on: M14 melanoma
OVCAR-5 ovarian = tested on: OVCAR-5 ovarian
K-562 leukemia = tested on: K-562 leukemia
HOP-18 NSCLC = tested on: HOP-18 NSCLC
SF-295 CNS = tested on: SF-295 CNS
CCRF-CEM leukemia = tested on: CCRF-CEM leukemia
SR leukemia = tested on: SR leukemia
TK-10 renal = tested on: TK-10 renal
A498 renal = tested on: A498 renal
HOP-92 NSCLC = tested on: HOP-92 NSCLC
M19-MEL melanoma = tested on: M19-MEL melanoma
MALME-3M melanoma = tested on: MALME-3M melanoma
U251 CNS = tested on: U251 CNS
OVCAR-8 ovarian = tested on: OVCAR-8 ovarian
EKVX NSCLC = tested on: EKVX NSCLC
DMS 273 small cell lung = tested on: DMS 273 small cell lung
SW-620 colon = tested on: SW-620 colon
DLD-1 colon = tested on: DLD-1 colon
UACC-257 melanoma = tested on: UACC-257 melanoma
SF-268 CNS = tested on: SF-268 CNS
IGROV1 ovarian = tested on: IGROV1 ovarian
LXFL 529 NSCLC = tested on: LXFL 529 NSCLC
HCT-116 colon = tested on: HCT-116 colon
SNB-19 CNS = tested on: SNB-19 CNS
SK-MEL-5 melanoma = tested on: SK-MEL-5 melanoma
OVCAR-4 ovarian = tested on: OVCAR-4 ovarian
LOX IMVI melanoma = tested on: LOX IMVI melanoma
UO-31 renal = tested on: UO-31 renal
SN12C renal = tested on: SN12C renal
HT29 colon = tested on: HT29 colon
UACC-62 melanoma = tested on: UACC-62 melanoma
XF 498 CNS = tested on: XF 498 CNS
NCI-H226 lung = tested on: NCI-H226 lung
ACHN renal = tested on: ACHN renal
KM12 colon = tested on: KM12 colon
SNB-78 CNS = tested on: SNB-78 CNS
HL-60(TB) leukemia = tested on: HL-60(TB) leukemia
A549 NSCLC = tested on: A549 NSCLC
CAKI-1 renal = tested on: CAKI-1 renal
MOLT-4 leukemia = tested on: MOLT-4 leukemia
786-0 renal = tested on: 786-0 renal
RXF 393 renal = tested on: RXF 393 renal
SK-MEL-28 melanoma = tested on: SK-MEL-28 melanoma
NCI-H23 lung = tested on: NCI-H23 lung
OVCAR-3 ovarian = tested on: OVCAR-3 ovarian
HCT-15 colon = tested on: HCT-15 colon
COLO 205 colon = tested on: COLO 205 colon

CCN1CCC(O)(c2ccccc2)C(C(=O)c2ccccc2)C1 (stereo not drawn)
TGI (SNB-75 CNS): > 100 µM | TGI (KM20L2 colon): > 60.7 µM | TGI (NCI-H522 lung): 6.87 µM | TGI (RPMI-8226 leukemia): 33.4 µM | TGI (SK-OV-3 ovarian): > 100 µM | TGI (HOP-62 NSCLC): > 100 µM | TGI (SK-MEL-2 melanoma): > 100 µM | TGI (NCI-H460 lung): > 100 µM | TGI (DMS 114 small cell lung): > 67.4 µM | TGI (SF-539 CNS): > 100 µM | TGI (HCC-2998 colon): > 100 µM | TGI (M14 melanoma): 34.4 µM | TGI (OVCAR-5 ovarian): 37.5 µM | TGI (K-562 leukemia): > 66 µM | TGI (HOP-18 NSCLC): 28 µM | TGI (SF-295 CNS): > 100 µM | TGI (CCRF-CEM leukemia): 38.3 µM | TGI (SR leukemia): 60.3 µM | TGI (TK-10 renal): 47.3 µM | TGI (A498 renal): > 100 µM | TGI (HOP-92 NSCLC): 36.1 µM | TGI (M19-MEL melanoma): > 63.1 µM | TGI (MALME-3M melanoma): 38.4 µM | TGI (U251 CNS): > 100 µM | TGI (OVCAR-8 ovarian): 63.7 µM | TGI (EKVX NSCLC): > 76.4 µM | TGI (DMS 273 small cell lung): > 100 µM | TGI (SW-620 colon): 38.3 µM | TGI (DLD-1 colon): 37 µM | TGI (UACC-257 melanoma): 46.5 µM | TGI (SF-268 CNS): > 31.6 µM | TGI (IGROV1 ovarian): > 100 µM | TGI (LXFL 529 NSCLC): 29.4 µM | TGI (HCT-116 colon): 31 µM | TGI (SNB-19 CNS): > 100 µM | TGI (SK-MEL-5 melanoma): > 100 µM | TGI (OVCAR-4 ovarian): 32.8 µM | TGI (LOX IMVI melanoma): > 31.6 µM | TGI (UO-31 renal): > 70 µM | TGI (SN12C renal): > 31.6 µM | TGI (HT29 colon): 39.7 µM | TGI (UACC-62 melanoma): > 69.2 µM | TGI (XF 498 CNS): 29.9 µM | TGI (NCI-H226 lung): 99.2 µM | TGI (ACHN renal): 30.5 µM | TGI (KM12 colon): > 100 µM | TGI (SNB-78 CNS): 54.1 µM | TGI (HL-60(TB) leukemia): 46.8 µM | TGI (A549 NSCLC): > 100 µM | TGI (CAKI-1 renal): 19.3 µM | TGI (MOLT-4 leukemia): > 60.2 µM | TGI (786-0 renal): 31 µM | TGI (RXF 393 renal): 29.7 µM | TGI (SK-MEL-28 melanoma): 33.4 µM | TGI (NCI-H23 lung): 97.5 µM | TGI (OVCAR-3 ovarian): 31.2 µM | TGI (HCT-15 colon): > 61.2 µM | TGI (COLO 205 colon): 53.1 µM
